Earlier results on two molecules are cited in patent publication US8183365B2, “Synthetic method for ceratamine A and B and analogs thereof” (The Ohio State University, priority 2009, dated 2012).

The conditions of the data set: cell-based assay; natural products isolated from sponge Pseudoceratina sp.

For the molecule Ceratamine B, the antimitotic activity entry is recorded as “possess antimitotic activity”.

For the molecule `CNc1nc2ccn(C)c(=O)c(Cc3cc(Br)c(OC)c(Br)c3)c-2n1` [ceratamine A, Ceratamine A], the antimitotic activity result is “possess antimitotic activity”.
